Source: patent publication US10640802B2 (priority 2012, dated 2020)

System: Acidithiobacillus ferrooxidans AfArsR variant C102S (biosensor co-cultured with Burkholderia sp. MR1)
Type: cell-based

| Compound | response of co-cultured biosensor |
| --- | --- |
| O=[As](O)(O)c1ccccc1 [PAA, phenylarsonic acid] | it didn't |
| O=[N+]([O-])c1cc([As](=O)(O)O)ccc1O [Rox(V), 4-hydroxy-3-nitrobenzenearsonic acid] | it didn't |
